The target in one test is T1, human PI3Kα protein (Homo sapiens, UniProt P42336).
T1 construct: purchased Carna Biosciences, Inc; host or cells: baculovirus expression system
The test is described as follows: PI3Kα enzyme assay (ADP-Glo). Format: biochemical. The following applies: read-out: PI3Kα enzyme inhibitory activity. Summed up:
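Biotinylated human PI3Kα (baculovirus-expressed, 4.5 nmol/L) pre-incubated 15 min with compound in Tris-HCl pH 7.5, MgCl2, BSA; reaction 60 min at 25° C with 50 μmol/L PIP2 and 100 μmol/L ATP final. ADP quantified by ADP-Glo luminescence; IC50 calculated.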
(In ADP-Glo the light output rises with the ADP produced.)

The target of test [1] is T2, GST fusion human ERK2 protein (Homo sapiens, UniProt P28482).
T2 construct: purchased Carna Biosciences, Inc; host or cells: E. coli expression system
T2 sequence (P28482 whole entry, the tested form may be a part): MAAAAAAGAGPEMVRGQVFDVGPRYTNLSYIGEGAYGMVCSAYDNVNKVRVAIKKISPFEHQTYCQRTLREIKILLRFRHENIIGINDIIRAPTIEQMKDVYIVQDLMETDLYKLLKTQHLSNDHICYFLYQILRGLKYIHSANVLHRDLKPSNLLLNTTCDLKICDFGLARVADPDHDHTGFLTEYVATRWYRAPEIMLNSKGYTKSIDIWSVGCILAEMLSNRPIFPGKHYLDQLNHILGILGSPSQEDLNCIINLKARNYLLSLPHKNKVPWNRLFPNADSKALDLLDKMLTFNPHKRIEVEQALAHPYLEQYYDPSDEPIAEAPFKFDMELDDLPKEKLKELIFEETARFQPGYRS
The test is described as follows: ERK2 enzyme assay (1). It counts as biochemical. The conditions noted are these: ERK2 enzyme assay (1); read-out: ERK2 enzyme inhibitory activity (1). Summed up:
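Enzyme (2.5 nmol/L, E. coli-expressed) preincubated with compound 15 min at room temperature in HEPES/MgCl2/DTT/Brij35 buffer, pH 7.5; reaction with 4.25 μmol/L FL-Peptide 8 and 43.1 μmol/L ATP for 120 min at 25 °C. Phosphorylated peptide fraction quantified by mobility-shift separation after EDTA stop; IC50 calculated.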

The target of test [2] is T2, GST fusion human ERK2 protein. The test is described as follows: ERK2 enzyme assay (2). It counts as biochemical. The conditions noted are these: ERK2 enzyme assay (2); read-out: ERK2 enzyme inhibitory activity (2). Put shortly: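 GST-tagged human ERK2 expressed in E. coli (1.25 nmol/L) was preincubated with compound for 15 min at room temperature in pH 7.5 Hepes buffer with MgCl2, DTT and Brij35. Reaction with FL-Peptide 8 (final 4.25 μmol/L) and ATP (final 1 mmol/L) ran 120 min at 25 °C; EDTA stopped it, and phosphorylated peptide was quantified by mobility-shift separation to derive IC50.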

In a further test the test system is CHO-K1 cells. The test is described as follows: CHO cell toxicity test. It counts as cell-based, Chinese hamster. The following applies: Cricetulus griseus, read-out: IC50 value (concentration at which the number of viable cells was suppressed to 50% or less). On the procedure:
In a CHO cell toxicity test, the following was used.
Cell: CHO-K1 cells (derived from Chinese hamster ovary) Test medium: F-12 MEDIUM+FCS (manufactured by Biowest) having a final concentration of 2%
Detection reagent: CELLTITER-GLO™ LUMINESCENT CELL VIABILITY ASSAY (trade name, manufactured by PROMEGA Corporation)
The CHO-K1 cells were seeded in a 96-well microplate for culture at 5,000 cells/well, and cultured in a CO2 incubator (37° C.) for 24 hours. An evaluation compound (final concentration: from 25.00 μmol/L to 0.20 μmol/L, common ratio: […]) was added thereto, followed by culturing for 24 hours, and the number of viable cells was calculated from emission intensity by CELLTITER-GLO™ (trade name, manufactured by PROMEGA Corporation). In the measurement of the emission intensity, VARIOSKAN FLASH (manufactured by Thermo Fisher Scientific Inc.) was used.
Inhibition ratio (%)=100−(A/B)×100
A: Emission intensity in the presence of a test compound
B: Emission intensity in the absence of a test compound

[3] abbreviates: CHO-K1 cells, 24 hours culture with compound, CellTiter-Glo.

Read-outs that look alike come from different tables or passages of the source.

T1 sequence (P42336 whole entry): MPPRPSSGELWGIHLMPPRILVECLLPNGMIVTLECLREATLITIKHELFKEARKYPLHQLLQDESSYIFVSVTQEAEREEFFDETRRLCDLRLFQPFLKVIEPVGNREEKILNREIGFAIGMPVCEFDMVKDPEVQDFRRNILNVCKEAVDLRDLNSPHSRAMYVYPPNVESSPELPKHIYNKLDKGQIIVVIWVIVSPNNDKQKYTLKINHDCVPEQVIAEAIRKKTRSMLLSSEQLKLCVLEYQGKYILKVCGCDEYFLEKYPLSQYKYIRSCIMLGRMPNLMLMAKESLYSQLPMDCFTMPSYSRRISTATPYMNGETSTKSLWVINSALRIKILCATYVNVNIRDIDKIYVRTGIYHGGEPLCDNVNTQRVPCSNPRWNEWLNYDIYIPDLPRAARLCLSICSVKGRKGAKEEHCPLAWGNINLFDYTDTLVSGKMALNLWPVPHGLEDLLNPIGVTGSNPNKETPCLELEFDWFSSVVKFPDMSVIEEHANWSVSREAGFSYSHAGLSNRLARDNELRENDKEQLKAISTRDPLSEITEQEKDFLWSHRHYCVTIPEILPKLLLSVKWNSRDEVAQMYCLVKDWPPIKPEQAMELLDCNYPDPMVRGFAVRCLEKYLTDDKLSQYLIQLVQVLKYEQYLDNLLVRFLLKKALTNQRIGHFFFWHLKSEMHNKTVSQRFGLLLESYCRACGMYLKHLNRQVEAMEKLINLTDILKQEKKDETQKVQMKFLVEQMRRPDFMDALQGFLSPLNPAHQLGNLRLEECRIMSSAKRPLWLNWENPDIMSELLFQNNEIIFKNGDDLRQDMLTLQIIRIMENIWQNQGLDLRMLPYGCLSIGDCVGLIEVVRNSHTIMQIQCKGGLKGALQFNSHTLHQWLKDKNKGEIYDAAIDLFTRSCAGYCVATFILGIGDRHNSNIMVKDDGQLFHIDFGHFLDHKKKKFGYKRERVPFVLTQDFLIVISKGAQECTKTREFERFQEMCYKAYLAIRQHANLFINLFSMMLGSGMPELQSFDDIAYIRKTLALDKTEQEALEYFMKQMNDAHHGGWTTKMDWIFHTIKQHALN
T1 sequence (P27986 whole entry partner): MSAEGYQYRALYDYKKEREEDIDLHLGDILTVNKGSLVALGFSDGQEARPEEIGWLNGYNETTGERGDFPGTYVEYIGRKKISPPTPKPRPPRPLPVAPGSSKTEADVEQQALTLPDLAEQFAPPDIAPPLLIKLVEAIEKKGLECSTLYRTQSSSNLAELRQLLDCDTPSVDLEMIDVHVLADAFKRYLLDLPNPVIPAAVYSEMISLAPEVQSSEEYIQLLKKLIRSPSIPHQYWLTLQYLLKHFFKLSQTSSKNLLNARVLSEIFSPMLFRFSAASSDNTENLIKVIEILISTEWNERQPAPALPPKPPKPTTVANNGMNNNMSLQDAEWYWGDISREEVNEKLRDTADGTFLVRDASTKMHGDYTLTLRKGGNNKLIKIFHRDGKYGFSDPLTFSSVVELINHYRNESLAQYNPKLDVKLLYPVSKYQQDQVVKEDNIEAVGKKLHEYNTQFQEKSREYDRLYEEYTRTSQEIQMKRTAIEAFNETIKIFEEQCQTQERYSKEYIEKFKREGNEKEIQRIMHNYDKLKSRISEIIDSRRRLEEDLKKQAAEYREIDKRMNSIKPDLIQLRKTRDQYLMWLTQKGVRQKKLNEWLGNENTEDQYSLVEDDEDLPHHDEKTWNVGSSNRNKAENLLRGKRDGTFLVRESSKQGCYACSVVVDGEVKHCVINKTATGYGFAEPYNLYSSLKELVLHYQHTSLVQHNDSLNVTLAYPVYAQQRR

Turning to `CCCc1nnc(Nc2ccc3ncc(-c4cnn(CCCN5CCCC5)c4)cc3n2)s1` [Example 0364], the IC50 (at human PI3Kα protein; in test [1]; in test [2]) was < 1 µM in each case.
Regarding `CC(C)c1cnnc(Nc2ccc3ncc(-c4cnn(C5CCN(C)CC5)c4)cc3n2)c1` [Example 0370, N-(5-isopropylpyridazin-3-yl)-7-(1-(1-methylpiperidin-4-yl)-1H-pyrazol-4-yl)-1,5-naphthyridine-2-amine], the IC50 (on human PI3Kα protein; in test [1]; in test [2]) was < 1 µM each time.
With `CC(C)c1cnnc(Nc2ccc3ncc(-c4cnn(CCCc5ccccc5)c4)cc3n2)c1` [Example 0372], the IC50 was 1 to 10 µM on human PI3Kα protein, < 1 µM in test [1] and < 1 µM in test [2].
In the case of `CNCc1nn(C)cc1-c1cnc2ccc(Nc3nnc(C(C)C)s3)nc2c1` [Example 0383, 5-isopropyl-N-(7-(1-methyl-3-((methylamino)methyl)-1H-pyrazol-4-yl)-1,5-naphthyridin-2-yl)-1,3,4-thiadiazole-2-amine], the IC50 at human PI3Kα protein is 1 to 10 µM; in test [1], < 1 µM; in test [2], < 1 µM.
`c1nc2ccc(Nc3cc(N4CCCC4)cnn3)nc2cc1-c1cnn(CCCN2CCCC2)c1` [Example 0402, 7-(1-(3-(Pyrrolidin-1-yl)propyl)-1H-pyrazol-4-yl)-N-(5-(pyrrolidin-1-yl)pyridazin-3-yl)-1,5-naphthyridine-2-amine]: the IC50 (on human PI3Kα protein; in test [1]; in test [2]) was < 1 µM in each case.
`CC(C)c1cnnc(Nc2ccc3ncc(-c4cnn(CCCN5CCC(F)CC5)c4)cc3n2)c1` [Example 0413, 7-(1-(3-(4-Fluoropiperidin-1-yl)propyl)-1H-pyrazol-4-yl)-N-(5-isopropylpyridazin-3-yl)-1,5-naphthyridine-2-amine]: the IC50 at human PI3Kα protein is < 1 µM; in test [2], < 1 µM; with CHO-K1 cells (setting [3]), ≥ 25 µM.
For the molecule `CC(C)c1cnnc(Nc2ccc3ncc(-c4cnn(CCCN5CCS(=O)(=O)CC5)c4)cc3n2)c1` [Example 0417, 4-(3-(4-(6-((5-isopropylpyridazin-3-yl)amino)-1,5-naphthyridin-3-yl)-1H-pyrazol-1-yl)propyl)thiomorpholine 1,1-dioxide], the IC50 at human PI3Kα protein is < 1 µM; in test [2] it was < 1 µM; in the test with CHO-K1 cells (setting [3]), ≥ 25 µM.
In the case of `CC(C)c1cnnc(Nc2ccc3ncc(-c4cnn(CCC(C)N5CCOCC5)c4)cc3n2)c1` (stereo not drawn) [Example 0418, N-(5-isopropylpyridazin-3-yl)-7-(1-(3-morpholinobutyl)-1H-pyrazol-4-yl)-1,5-naphthyridine-2-amine], the IC50 was < 1 µM on human PI3Kα protein, < 1 µM in test [2] and ≥ 25 µM in the test with CHO-K1 cells (setting [3]).
Take `CC(C)c1cnnc(Nc2ccc3ncc(-c4cnn(CCCN5CCSCC5)c4)cc3n2)c1` [Example 0420]: the IC50 at human PI3Kα protein was < 1 µM; in test [2] it was < 1 µM; in the test with CHO-K1 cells (setting [3]), ≥ 25 µM.
Turning to `CC(C)c1cnnc(Nc2ccc3ncc(-c4cnn(CCCN5CCCC5=O)c4)cc3n2)c1` [Example 0422], the IC50 on human PI3Kα protein is < 1 µM; in test [2], < 1 µM; in the test with CHO-K1 cells (setting [3]) it was ≥ 25 µM.
`CC(C)c1cnnc(Nc2ccc3ncc(-c4cnn(CCCN5CCOCC5=O)c4)cc3n2)c1` [Example 0424]: the IC50 on human PI3Kα protein was < 1 µM; in test [2] it was < 1 µM; in the test with CHO-K1 cells (CHO-K1, 24 h), ≥ 25 µM.
In the case of `CC(C)c1cnnc(Nc2ccc3ncc(-c4cnn(CCCN5C[C@@H](C)N(C)[C@@H](C)C5)c4)cc3n2)c1` [Example 0426, N-(5-isopropylpyridazin-3-yl)-7-(1-(3-((3S,5R)-3,4,5-trimethylpiperazin-1-yl)propyl)-1H-pyrazol-4-yl)-1,5-naphthyridine-2-amine], the results for the IC50 (on human PI3Kα protein; in test [2]; with CHO-K1 cells (setting [3])) were < 1 µM, < 1 µM and ≥ 25 µM, respectively.
As for `CC(C)c1cnnc(Nc2ccc3ncc(-c4cnn(CCCN5CCC(O)CC5)c4)cc3n2)c1` [Example 0430], the IC50 at human PI3Kα protein is < 1 µM; in test [2], < 1 µM; in the test with CHO-K1 cells (setting [3]) it was ≥ 25 µM.
For `Cc1nn(CCCN2C[C@@H](C)O[C@@H](C)C2)cc1-c1cnc2ccc(Nc3cc(C(C)C)cnn3)nc2c1` [Example 0431], the IC50 was < 1 µM on human PI3Kα protein, < 1 µM in test [2] and ≥ 25 µM in the test on CHO-K1 cells (setting [3]).
Consider `CC(C)c1cnnc(Nc2ccc3ncc(-c4cnn(CCCN5[C@H](C)CCC[C@@H]5C)c4)cc3n2)c1` [Example 0432], for which the IC50 is < 1 µM on human PI3Kα protein, < 1 µM in test [2] and ≥ 25 µM with CHO-K1 cells (setting [3]).
With `CC(C)c1cnnc(Nc2ccc3ncc(-c4cnn(CCCN5C[C@@H](C)N[C@@H](C)C5)c4)cc3n2)c1` [Example 0439, 7-(1-(3-((3S,5R)-3,5-dimethylpiperazin-1-yl)propyl)-1H-pyrazol-4-yl)-N-(5-isopropylpyridazin-3-yl)-1,5-naphthyridine-2-amine], the IC50 on human PI3Kα protein is < 1 µM; in test [2], < 1 µM; in the test on CHO-K1 cells (setting [3]) it was ≥ 25 µM.
Take `CC(=O)N1CC(n2cc(-c3cnc4ccc(Nc5cc(C(C)C)cnn5)nc4c3)cn2)C1` [Example 0443]: the values for the IC50 (on human PI3Kα protein; in test [2]; in the test on CHO-K1 cells (setting [3])) were < 1 µM, < 1 µM and ≥ 25 µM, respectively.
Consider `CC(C)c1cnnc(Nc2ccc3ncc(-c4cnn(Cc5cocn5)c4)cc3n2)c1` [Example 0450], for which the IC50 at human PI3Kα protein was < 1 µM; in test [2], < 1 µM; in the test on CHO-K1 cells (setting [3]) it was ≥ 25 µM.
Turning to `CC(C)c1cnnc(Nc2ccc3ncc(-c4cn(C)nc4-c4ccc(C#N)nc4)cc3n2)c1` [Example 0455], the IC50 is < 1 µM on human PI3Kα protein, < 1 µM in test [2] and ≥ 25 µM with CHO-K1 cells (setting [3]).
For the molecule `COc1ccc(-c2nn(C)cc2-c2cnc3ccc(Nc4cc(C(C)C)cnn4)nc3c2)cn1` [Example 0456], the IC50 at human PI3Kα protein was < 1 µM; in test [2], < 1 µM; with CHO-K1 cells (setting [3]) it was ≥ 25 µM.
As to `CC(C)c1cnnc(Nc2ccc3ncc(-c4cnn(CC(F)(F)F)c4)cc3n2)c1` [Example 0460], the IC50 is < 1 µM at human PI3Kα protein, < 1 µM in test [2] and ≥ 25 µM with CHO-K1 cells (setting [3]).
`CC(C)c1cnnc(Nc2ccc3ncc(-c4cnn(Cc5ccc(N6CCOCC6)nc5)c4)cc3n2)c1` [Example 0462, N-(5-isopropylpyridazin-3-yl)-7-(1-((6-morpholinopyridin-3-yl)methyl)-1H-pyrazol-4-yl)-1,5-naphthyridine-2-amine]: the IC50 was < 1 µM at human PI3Kα protein, < 1 µM in test [2] and ≥ 25 µM with CHO-K1 cells (setting [3]).
As for `COCCn1cc(-c2cnc3ccc(Nc4cc(C(C)C)cnn4)nc3c2)cn1` [Example 0471, N-(5-isopropylpyridazin-3-yl)-7-(1-(2-methoxyethyl)-1H-pyrazol-4-yl)-1,5-naphthyridine-2-amine], the IC50 (on human PI3Kα protein; in test [1]; in test [2]) was < 1 µM throughout.
Consider `COCCCn1cc(-c2cnc3ccc(Nc4cc(C(C)C)cnn4)nc3c2)cn1` [Example 0472], for which the IC50 (at human PI3Kα protein; in test [1]; in test [2]) was < 1 µM each time.
On to `CC(C)c1cnnc(Nc2ccc3ncc(-c4cnn(C5CCOCC5)c4)cc3n2)c1` [Example 0475, N-(5-isopropylpyridazin-3-yl)-7-(1-(tetrahydro-2H-pyran-4-yl)-1H-pyrazol-4-yl)-1,5-naphthyridine-2-amine], for which the IC50 (at human PI3Kα protein; in test [1]; in test [2]) was < 1 µM in each case.
With `COc1cc(-c2cnc3ccc(Nc4cc(C(C)C)cnn4)nc3c2)ccn1` [Example 0588], the IC50 at human PI3Kα protein was 1 to 10 µM; in test [1], < 1 µM; in test [2] it was < 1 µM.
Turning to `CC(C)c1cnnc(Nc2ccc3ncc(-c4ccnc(O)c4)cc3n2)c1` [Example 0589, 4-(6-((5-isopropylpyridazin-3-yl)amino)-1,5-naphthyridin-3-yl)pyridin-2-ol], the IC50 (on human PI3Kα protein; in test [1]; in test [2]) was < 1 µM each time.

For the origin of these results see US9783536B2, “Nitrogen-containing heterocyclic compound or salt thereof” (FUJIFILM Corporation, priority 2013, dated 2017).
